Reference: patent US9730940B2, “Purine inhibitors of human phosphatidylinositol 3-kinase delta” (priority 2012, dated 2017)

What follows are compounds tested against PI3K-alpha (Homo sapiens (Human), UniProt P42336) (assay: HTRF PI3K biochemical assay, alpha isoform). Details: ratio PI3K-alpha IC50 value/PI3K-delta IC50 value.
Chain of PI3K-alpha (P42336 whole entry, looked up, canonical isoform): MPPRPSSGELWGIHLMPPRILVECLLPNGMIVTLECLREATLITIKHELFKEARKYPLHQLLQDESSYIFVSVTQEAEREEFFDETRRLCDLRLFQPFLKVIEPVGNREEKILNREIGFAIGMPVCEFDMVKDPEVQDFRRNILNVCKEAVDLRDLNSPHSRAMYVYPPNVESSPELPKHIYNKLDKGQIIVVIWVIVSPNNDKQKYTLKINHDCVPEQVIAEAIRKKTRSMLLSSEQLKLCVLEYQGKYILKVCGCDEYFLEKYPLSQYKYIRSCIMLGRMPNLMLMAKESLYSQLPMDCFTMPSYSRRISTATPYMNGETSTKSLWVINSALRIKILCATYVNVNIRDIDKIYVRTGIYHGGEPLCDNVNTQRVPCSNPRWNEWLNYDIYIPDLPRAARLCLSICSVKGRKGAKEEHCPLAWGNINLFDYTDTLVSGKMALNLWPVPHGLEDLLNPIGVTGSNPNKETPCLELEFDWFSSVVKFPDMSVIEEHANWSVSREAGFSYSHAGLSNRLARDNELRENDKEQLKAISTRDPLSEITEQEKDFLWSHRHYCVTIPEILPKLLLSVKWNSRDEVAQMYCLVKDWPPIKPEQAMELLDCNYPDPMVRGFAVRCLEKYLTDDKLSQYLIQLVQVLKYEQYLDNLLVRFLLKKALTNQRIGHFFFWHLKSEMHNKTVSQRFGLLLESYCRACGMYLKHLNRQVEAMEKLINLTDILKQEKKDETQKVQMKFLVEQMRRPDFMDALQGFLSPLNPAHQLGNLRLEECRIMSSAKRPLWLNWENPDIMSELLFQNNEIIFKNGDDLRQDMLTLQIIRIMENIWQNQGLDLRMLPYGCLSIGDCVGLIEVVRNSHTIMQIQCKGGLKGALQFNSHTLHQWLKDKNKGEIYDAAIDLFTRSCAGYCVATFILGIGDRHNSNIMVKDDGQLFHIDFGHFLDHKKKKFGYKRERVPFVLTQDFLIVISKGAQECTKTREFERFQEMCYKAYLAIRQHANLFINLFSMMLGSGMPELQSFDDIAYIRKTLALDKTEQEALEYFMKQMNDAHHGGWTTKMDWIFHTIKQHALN
Chain of PI3K-alpha (P27986 whole entry partner, looked up, canonical isoform): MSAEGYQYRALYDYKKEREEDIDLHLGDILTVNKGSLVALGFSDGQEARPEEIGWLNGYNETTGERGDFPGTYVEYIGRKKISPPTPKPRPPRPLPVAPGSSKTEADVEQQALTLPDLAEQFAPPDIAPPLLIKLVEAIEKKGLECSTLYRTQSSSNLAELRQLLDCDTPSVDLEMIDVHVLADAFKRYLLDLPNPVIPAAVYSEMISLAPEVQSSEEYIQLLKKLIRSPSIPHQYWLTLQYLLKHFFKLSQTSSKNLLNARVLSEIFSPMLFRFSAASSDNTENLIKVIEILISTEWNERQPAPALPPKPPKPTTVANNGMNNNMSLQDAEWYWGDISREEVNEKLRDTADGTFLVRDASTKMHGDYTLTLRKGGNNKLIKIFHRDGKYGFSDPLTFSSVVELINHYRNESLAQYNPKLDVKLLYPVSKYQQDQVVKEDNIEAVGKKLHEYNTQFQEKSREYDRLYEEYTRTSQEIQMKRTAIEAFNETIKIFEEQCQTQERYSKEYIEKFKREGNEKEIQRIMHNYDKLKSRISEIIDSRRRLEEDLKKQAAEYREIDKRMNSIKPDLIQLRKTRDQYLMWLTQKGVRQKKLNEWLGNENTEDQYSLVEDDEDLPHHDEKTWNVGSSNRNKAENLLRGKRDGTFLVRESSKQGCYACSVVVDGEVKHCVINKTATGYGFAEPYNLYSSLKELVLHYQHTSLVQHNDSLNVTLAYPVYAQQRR

| SMILES | Relative Selectivity versus PI3Kalpha |
| --- | --- |
| CCn1c(-c2cnc(C)nc2)nc2c(O[C@H]3CCN(C(=O)N4CCC(C)(O)C4)C3)ncnc21 (stereo partly drawn) [Compound 5-20, 1-{[(3S)-3-{[9-ethyl-8-(2-methylpyrimidin-5-yl)-9H-purin-6-yl]oxy}pyrrolidin-1-yl]carbonyl}-3-methylpyrrolidin-3-ol] | >10 |
| CCn1c(-c2cnc(C)nc2)nc2c(O[C@H]3CCN(C(=O)N4CC(C)(OC)C4)C3)ncnc21 [Compound 5-21, 9-ethyl-6-({(3S)-1-[(3-methoxy-3-methylazetidin-1-yl)carbonyl]pyrrolidin-3-yl}oxy)-8-(2-methylpyrimidin-5-yl)-9H-purine] | >10 |
| CCn1c(-c2cnc(C)nc2)nc2c(O[C@H]3CCN(C(=O)N4CC5CC5C4)C3)ncnc21 (stereo partly drawn) [Compound 5-22, 6-{[(3S)-1-(3-azabicyclo[3.1.0]hex-3-ylcarbonyl)pyrrolidin-3-yl]oxy}-9-ethyl-8-(2-methylpyrimidin-5-yl)-9H-purine] | >10 |
| CCn1c(-c2cnc(C)nc2)nc2c(O[C@H]3CCN(C(=O)N4CCCCC4)C3)ncnc21 [Compound 5-23, 9-ethyl-8-(2-methylpyrimidin-5-yl)-6-{[(3S)-1-(piperidin-1-ylcarbonyl)pyrrolidin-3-yl]oxy}-9H-purine] | >10 |
| CCn1c(-c2cnc(C)nc2)nc2c(O[C@H]3CCN(C(=O)N4C5CCC4CC5)C3)ncnc21 [Compound 5-24] | >10 |
| CCn1c(-c2cnc(C)nc2)nc2c(O[C@H]3CCN(C(=O)N4CC(O)C4)C3)ncnc21 [Compound 5-25, 1-{[(3S)-3-{[9-ethyl-8-(2-methylpyrimidin-5-yl)-9H-purin-6-yl]oxy}pyrrolidin-1-yl]carbonyl}azetidin-3-ol] | >10 |
| CCn1c(-c2cnc(C)nc2)nc2c(O[C@H]3CCN(C(=O)N4CCC(F)(F)C4)C3)ncnc21 [Compound 5-26, 6-({(3S)-1-[(3,3-difluoropyrrolidin-1-yl)carbonyl]pyrrolidin-3-yl}oxy)-9-ethyl-8-(2-methylpyrimidin-5-yl)-9H-purine] | >10 |
| CCn1c(-c2cnc(C)nc2)nc2c(O[C@H]3CCN(C(=O)N4CC(F)C4)C3)ncnc21 [Compound 5-27, 9-ethyl-6-({(3S)-1-[(3-fluoroazetidin-1-yl)carbonyl]pyrrolidin-3-yl}oxy)-8-(2-methylpyrimidin-5-yl)-9H-purine] | >10 |
| CCn1c(-c2ccc(C(F)(F)F)nc2)nc2c(O[C@H]3CCN(C(=O)N4CC(OC)C4)C3)ncnc21 [Compound 5-28, (S)-(3-((9-ethyl-8-(6-(trifluoromethyl)pyridin-3-yl)-9H-purin-6-yl)oxy)pyrrolidin-1-yl)(3-methoxyazetidin-1-yl)methanone] | >10 |
| CCn1ncc(-c2nc3c(O[C@H]4CCN(C(C)c5ccccc5)C4)ncnc3n2C)c1C (stereo partly drawn) [Compound 6-1, 8-(1-ethyl-5-methyl-1H-pyrazol-4-yl)-9-methyl-6-{[(3S)-1-(1-phenylethyl)pyrrolidin-3-yl]oxy}-9H-purine] | >10 |
| CCn1ncc(-c2nc3c(O[C@H]4CCN(CC5CCCCC5)C4)ncnc3n2C)c1C [Compound 6-2, 6-{[(3S)-1-(cyclohexylmethyl)pyrrolidin-3-yl]oxy}-8-(1-ethyl-5-methyl-1H-pyrazol-4-yl)-9-methyl-9H-purine] | >10 |
| CCCN1CC[C@H](Oc2ncnc3c2nc(-c2cnn(CC)c2C)n3C)C1 [Compound 6-5, (S)-8-(1-ethyl-5-methyl-1H-pyrazol-4-yl)-9-methyl-6-((1-propylpyrrolidin-3-yl)oxy)-9H-purine] | >10 |
| CCn1c(-c2cnc(C)nc2)nc2c(OC3CN(Cc4ccccc4)CC3(C)C)ncnc21 (centres unmarked) [Compound 6-6, 6-((1-benzyl-4,4-dimethylpyrrolidin-3-yl)oxy)-9-ethyl-8-(2-methylpyrimidin-5-yl)-9H-purine] | >10 |
| CCn1ncc(-c2nc3c(O[C@H]4CCN(c5ncccn5)C4)ncnc3n2C)c1C [Compound 7-1, 8-(1-ethyl-5-methyl-1H-pyrazol-4-yl)-9-methyl-6-{[(3S)-1-pyrimidin-2-ylpyrrolidin-3-yl]oxy}-9H-purine] | >10 |
| CCn1ncc(-c2nc3c(O[C@H]4CCN(c5ncnc6sc(C)cc56)C4)ncnc3n2C)c1C [Compound 7-2, 8-(1-ethyl-5-methyl-1H-pyrazol-4-yl)-9-methyl-6-{[(3S)-1-(6-methylthieno[2,3-d]pyrimidin-4-yl)pyrrolidin-3-yl]oxy}-9H-purine] | >10 |
| CCn1ncc(-c2nc3c(O[C@H]4CCN(c5nccc6sccc56)C4)ncnc3n2C)c1C [Compound 7-3, 8-(1-ethyl-5-methyl-1H-pyrazol-4-yl)-9-methyl-6-{[(3S)-1-thieno[3,2-c]pyridin-4-ylpyrrolidin-3-yl]oxy}-9H-purine] | >10 |

| SMILES | Relative Selectivity versus PI3Kalpha |
| --- | --- |
| CCn1ncc(-c2nc3c(O[C@H]4CCN(c5ncnc6ccsc56)C4)ncnc3n2C)c1C [Compound 7-4, 8-(1-ethyl-5-methyl-1H-pyrazol-4-yl)-9-methyl-6-{[(3S)-1-thieno[3,2-d]pyrimidin-4-ylpyrrolidin-3-yl]oxy}-9H-purine] | >10 |
| CCn1ncc(-c2nc3c(O[C@H]4CCN(c5cc(C(F)(F)F)ccn5)C4)ncnc3n2C)c1C [Compound 7-5, 8-(1-ethyl-5-methyl-1H-pyrazol-4-yl)-9-methyl-6-({(3S)-1-[4-(trifluoromethyl)pyridin-2-yl]pyrrolidin-3-yl}oxy)-9H-purine] | >10 |
| CCn1ncc(-c2nc3c(O[C@H]4CCN(c5nccn6cnnc56)C4)ncnc3n2C)c1C [Compound 7-6, 8-[(3S)-3-{[8-(1-ethyl-5-methyl-1H-pyrazol-4-yl)-9-methyl-9H-purin-6-yl]oxy}pyrrolidin-1-yl][1,2,4]triazolo[4,3-a]pyrazine] | >10 |
| CCn1ncc(-c2nc3c(O[C@H]4CCN(c5ccccn5)C4)ncnc3n2C)c1C [Compound 7-7, 8-(1-ethyl-5-methyl-1H-pyrazol-4-yl)-9-methyl-6-{[(3S)-1-pyridin-2-ylpyrrolidin-3-yl]oxy}-9H-purine] | >10 |
| CCn1ncc(-c2nc3c(O[C@H]4CCN(c5nncc6ccccc56)C4)ncnc3n2C)c1C [Compound 7-8, 1-[(3S)-3-{[8-(1-ethyl-5-methyl-1H-pyrazol-4-yl)-9-methyl-9H-purin-6-yl]oxy}pyrrolidin-1-yl]phthalazine] | >10 |
| CCn1ncc(-c2nc3c(O[C@H]4CCN(c5cc(-n6cc(C)cn6)ncn5)C4)ncnc3n2C)c1C [Compound 7-9, 8-(1-ethyl-5-methyl-1H-pyrazol-4-yl)-9-methyl-6-({(3S)-1-[6-(4-methyl-1H-pyrazol-1-yl)pyrimidin-4-yl]pyrrolidin-3-yl}oxy)-9H-purine] | >10 |
| CCn1ncc(-c2nc3c(O[C@H]4CCN(c5nccc(-c6ccco6)n5)C4)ncnc3n2C)c1C [Compound 7-10, 8-(1-ethyl-5-methyl-1H-pyrazol-4-yl)-6-{[(3S)-1-(4-furan-2-ylpyrimidin-2-yl)pyrrolidin-3-yl]oxy}-9-methyl-9H-purine] | >10 |
| CCn1ncc(-c2nc3c(O[C@H]4CCN(c5cncc(C)n5)C4)ncnc3n2C)c1C [Compound 7-11, 8-(1-ethyl-5-methyl-1H-pyrazol-4-yl)-9-methyl-6-{[(3S)-1-(6-methylpyrazin-2-yl)pyrrolidin-3-yl]oxy}-9H-purine] | >10 |
| CCn1ncc(-c2nc3c(O[C@H]4CCN(c5ncnc6sc(C)c(C)c56)C4)ncnc3n2C)c1C [Compound 7-12, 6-{[(3S)-1-(5,6-dimethylthieno[2,3-d]pyrimidin-4-yl)pyrrolidin-3-yl]oxy}-8-(1-ethyl-5-methyl-1H-pyrazol-4-yl)-9-methyl-9H-purine] | >10 |
| CCn1ncc(-c2nc3c(O[C@H]4CCN(c5ncnc6sccc56)C4)ncnc3n2C)c1C [Compound 7-13, 8-(1-ethyl-5-methyl-1H-pyrazol-4-yl)-9-methyl-6-{[(3S)-1-thieno[2,3-d]pyrimidin-4-ylpyrrolidin-3-yl]oxy}-9H-purine] | >10 |
| CCn1ncc(-c2nc3c(O[C@H]4CCN(c5ncnc6c5cnn6C)C4)ncnc3n2C)c1C [Compound 7-14, 4-[(3S)-3-{[8-(1-ethyl-5-methyl-1H-pyrazol-4-yl)-9-methyl-9H-purin-6-yl]oxy}pyrrolidin-1-yl]-1-methyl-1H-pyrazolo[3,4-d]pyrimidine] | >10 |
| CCn1ncc(-c2nc3c(O[C@H]4CCN(c5cc(-n6cccn6)ncn5)C4)ncnc3n2C)c1C [Compound 7-15, 8-(1-ethyl-5-methyl-1H-pyrazol-4-yl)-9-methyl-6-({(3S)-1-[6-(1H-pyrazol-1-yl)pyrimidin-4-yl]pyrrolidin-3-yl}oxy)-9H-purine] | >10 |
| CCn1c(-c2cnc(C)nc2)nc2c(O[C@H]3CCN(c4ccccc4C)C3)ncnc21 [Compound 7-16, 9-ethyl-6-{[(3S)-1-(2-methylphenyl)pyrrolidin-3-yl]oxy}-8-(2-methylpyrimidin-5-yl)-9H-purine] | >10 |
| CCn1c(-c2cnc(C)nc2)nc2c(O[C@H]3CCN(c4ccccn4)C3)ncnc21 [Compound 7-17, 9-ethyl-8-(2-methylpyrimidin-5-yl)-6-{[(3S)-1-pyridin-2-ylpyrrolidin-3-yl]oxy}-9H-purine] | >10 |
| CCn1c(-c2cnc(C)nc2)nc2c(O[C@H]3CCN(c4cc(C)ccn4)C3)ncnc21 [Compound 7-18, 9-ethyl-6-{[(3S)-1-(4-methylpyridin-2-yl)pyrrolidin-3-yl]oxy}-8-(2-methylpyrimidin-5-yl)-9H-purine] | >10 |
| CCn1c(-c2cnc(C)nc2)nc2c(O[C@H]3CCN(c4ccccc4)C3)ncnc21 [Compound 7-19, 9-ethyl-8-(2-methylpyrimidin-5-yl)-6-{[(3S)-1-phenylpyrrolidin-3-yl]oxy}-9H-purine] | >10 |
